Drawing on patent publication US10793542B2, “Hetroarylamine compounds for modulating the hedgehog pathway and preparing method and uses thereof” (DEVELOPMENT CENTER FOR BIOTECHNOLOGY, priority 2016, dated 2020), this text covers IC50 for 10 compounds.

Type in all cases: cell-based
The subject of test [1] is hedgehog pathway (pGL3-7xGli-Luciferase reporter in C3H10T1/2 cells). Nature of the test: Transient transfection of C3H10T1/2 and Gli-Luc reporter assay with SAG stimulation. Conditions: Mus musculus, C3H 10T1/2, SAG 20 nM, 48 hr, read-out: Inhibition of Gli-Luc expression [IC50. In outline: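 C3H10T1/2 cells were transiently transfected with a 7xGli-firefly luciferase reporter and a TK-Renilla control, then treated with serially diluted compounds plus 20 nM SAG in 0.5% FBS for 48 h at 37 °C. Firefly signal was normalized to Renilla and scaled between DMSO with SAG (100%) and without SAG (0%). IC50 was obtained by nonlinear regression.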

A further test concerns the target T1, Smo wild type (Homo sapiens, UniProt Q99835).
T1 construct: expressed in transfected cells; host or cells: C3H10T1/2 cells (ATCC CCL-226), transient transfection with pLPCX-SMO
Nature of the test: Reporter assay of C3H10T1/2-Gli-Luc cells transfected with wild-type Smo, without SAG. Conditions: C3H10T1/2 cells transfected with pLPCX-SMO, no SAG, 48 hr; read-out: Inhibition of C3H10T1/2-Gli-Luc-Smo-WT [IC50. In short, it runs like this: (§1)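 C3H10T1/2-Gli-Luc cells transiently transfected with wild-type or D473H SMO, replated in 0.5% FBS RPMI and incubated with compounds 48 h at 37 °C without SAG. Dual-luciferase, firefly normalized to Renilla; scaled to DMSO (100%) and 10 μM ALLO-2 (0%); IC50 by nonlinear regression.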

The target in another test is T2, Smo D473H mutant (Homo sapiens, UniProt Q99835, D473H).
T2 construct: expressed in transfected cells; host or cells: C3H10T1/2 cells (ATCC CCL-226), transient transfection with pLPCX-SMO-D473H
T2 sequence (Q99835 28-787 D473H): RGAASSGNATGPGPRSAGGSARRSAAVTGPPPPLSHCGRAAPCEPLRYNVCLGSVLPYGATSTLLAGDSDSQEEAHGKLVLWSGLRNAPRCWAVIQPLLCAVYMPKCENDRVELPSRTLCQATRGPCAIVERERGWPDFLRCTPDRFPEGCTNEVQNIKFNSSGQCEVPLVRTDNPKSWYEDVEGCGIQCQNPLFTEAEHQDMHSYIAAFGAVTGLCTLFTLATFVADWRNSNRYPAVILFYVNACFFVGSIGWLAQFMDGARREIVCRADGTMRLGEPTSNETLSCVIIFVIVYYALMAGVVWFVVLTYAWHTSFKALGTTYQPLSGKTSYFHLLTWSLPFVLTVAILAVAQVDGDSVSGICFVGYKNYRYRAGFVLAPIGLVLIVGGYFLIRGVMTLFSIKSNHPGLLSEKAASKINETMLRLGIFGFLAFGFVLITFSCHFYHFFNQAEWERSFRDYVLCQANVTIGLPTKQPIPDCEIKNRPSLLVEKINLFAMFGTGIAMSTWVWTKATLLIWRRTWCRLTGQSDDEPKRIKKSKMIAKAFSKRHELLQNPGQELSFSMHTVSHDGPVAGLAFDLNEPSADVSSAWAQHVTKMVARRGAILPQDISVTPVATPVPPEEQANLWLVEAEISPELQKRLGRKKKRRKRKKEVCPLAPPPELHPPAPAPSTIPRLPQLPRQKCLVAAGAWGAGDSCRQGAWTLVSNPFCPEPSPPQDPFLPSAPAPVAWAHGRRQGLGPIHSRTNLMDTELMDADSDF
Nature of the test: Reporter assay of C3H10T1/2-Gli-Luc cells transfected with Smo D473H mutant, without SAG. Conditions: C3H10T1/2 cells transfected with pLPCX-SMO-D473H, no SAG, 48 hr; read-out: Inhibition of C3H10T1/2-Gli-Luc-Smo-D473H [IC50. In short, it runs like this: as §1

Where only a bound is given, the exact number is not on record here.

T1 sequence (Q99835 28-787): as the sequence (Q99835 28-787 D473H) above, with H446D counted along it

Consider `COc1cccc(OC)c1NC(=O)c1ccc(Nc2ncc(SC)c(-c3cccnc3F)n2)c(F)c1` [Compound 13, N-(2,6-Dimethoxy-phenyl)-3-fluoro-4-[4-(2-fluoro-pyridin-3-yl)-5-methylsulfanyl-pyrimidin-2-ylamino]-benzamide], for which the IC50 (in test [1]; at Smo wild type; at Smo D473H mutant) was 100 to 1000 nM each time.

Take `CSc1cnc(Nc2ccc(C(=O)Nc3ccc(C#N)cc3)cc2)nc1-c1cccnc1F` [Compound 18, N-(4-Cyano-phenyl)-4-[4-(2-fluoro-pyridin-3-yl)-5-methylsulfanyl-pyrimidin-2-ylamino]-benzamide]: the IC50 (in test [1]; on Smo wild type; on Smo D473H mutant) was 100 to 1000 nM each time.

For the compound `COc1cccc(C)c1NC(=O)c1ccc(Nc2ncc(SC)c(-c3ccc(OC(F)(F)F)cc3)n2)cc1` [Compound 25, N-(2-Methoxy-6-methyl-phenyl)-4-[5-methylsulfanyl-4-(4-trifluoromethoxy-phenyl)-pyrimidin-2-ylamino]-benzamide], the IC50 (in test [1]; at Smo wild type; on Smo D473H mutant) was 100 to 1000 nM throughout.

For `CSc1cnc(Nc2ccc(C(=O)Nc3cc(CN(C)C)ccc3C)cc2)cc1-c1ccc(OC(F)(F)F)cc1` [Compound 83, N-(5-Dimethylaminomethyl-2-methyl-phenyl)-4-[5-methylsulfanyl-4-(4-trifluoromethoxy-phenyl)-pyridin-2-ylamino]-benzamide], the IC50 (in test [1]; on Smo wild type; at Smo D473H mutant) was under 100 nM in each case.

In the case of `COc1cccc(OC)c1NC(=O)c1ccc(Nc2ncc(SC)c(-c3ccccc3)n2)cc1` [Compound 21, N-(2,6-Dimethoxy-phenyl)-4-(5-methylsulfanyl-4-phenyl-pyrimidin-2-ylamino)-benzamide], the IC50 in test [1] is under 100 nM; on Smo wild type it was under 100 nM; on Smo D473H mutant it was 100 to 1000 nM.

`CSc1cnc(Nc2ccc(C(=O)Nc3cc(CN(C)C)ccc3C)cc2)nc1-c1ccc(C#N)cc1` [Compound 34, 4-[4-(4-Cyano-phenyl)-5-methylsulfanyl-pyrimidin-2-ylamino]-N-(5-dimethylaminomethyl-2-methyl-phenyl)-benzamide]: the IC50 in test [1] was under 100 nM; at Smo wild type, 100 to 1000 nM; on Smo D473H mutant, 100 to 1000 nM.

On to `CSc1cnc(Nc2ccc(C(=O)Nc3cc(CN4CCOCC4)ccc3F)cc2)nc1-c1ccc(OC(F)(F)F)cc1` [Compound 70, N-(2-Fluoro-5-morpholin-4-ylmethyl-phenyl)-4-[5-methylsulfanyl-4-(4-trifluoromethoxy-phenyl)-pyrimidin-2-ylamino]-benzamide], for which the IC50 (in test [1]; at Smo wild type; on Smo D473H mutant) was under 100 nM each time.

Regarding `CSc1cnc(Nc2ccc(C(=O)Nc3cc(CN(C)C)ccc3C)cc2)nc1-c1ccc(C(F)(F)F)cc1` [Compound 32, N-(5-Dimethylaminomethyl-2-methyl-phenyl)-4-[5-methylsulfanyl-4-(4-trifluoromethyl-phenyl)-pyrimidin-2-ylamino]-benzamide], the IC50 (in test [1]; at Smo wild type; on Smo D473H mutant) was 100 to 1000 nM in each case.

Consider `CSc1cnc(Nc2ccc(C(=O)Nc3ccccc3C)cc2)nc1-c1cccnc1F` [Compound 11, 4-[4-(2-Fluoro-pyridin-3-yl)-5-methylsulfanyl-pyrimidin-2-ylamino]-N-o-tolyl-benzamide], for which the IC50 (in test [1]; at Smo wild type; on Smo D473H mutant) was 100 to 1000 nM each time.

With `COc1cnc(Nc2ccc(C(=O)Nc3cc(CN4CCN(C)CC4)ccc3C)cc2)nc1-c1ccc(OC(F)(F)F)cc1` [Compound 52, 4-[5-Methoxy-4-(4-trifluoromethoxy-phenyl)-pyrimidin-2-ylamino]-N-[2-methyl-5-(4-methyl-piperazin-1-ylmethyl)-phenyl]-benzamide], the IC50 in test [1] was under 100 nM; at Smo wild type, under 100 nM; on Smo D473H mutant, over 1000 nM.
